Consider three compounds from PMC4457528, “Identification of Novel Small Molecule Inhibitors of Oncogenic RET Kinase” (PLoS ONE, 2015).

Common to all, as to experiment: KinomeScan kinase panel, single concentration 10 µM
Type in all cases: binding

Experiment [1] has as its target T1, KinomeScan kinase panel (Homo sapiens, UniProt Q13882).
T1 construct: purchased DiscoveRx (KinomeScan)
Conditions: read-out: score (%).

Experiment [2] addresses T2, KinomeScan kinase panel (Homo sapiens, UniProt Q9UQM7).
T2 construct: purchased DiscoveRx (KinomeScan)
Conditions: CAMK2A, 10 µM; read-out: score (%).

For experiment [3], the target named is T3, KinomeScan kinase panel (Homo sapiens, UniProt Q6DT37).
T3 construct: purchased DiscoveRx (KinomeScan)
Conditions: DMPK2, 10 µM; read-out: score (%).

The target in experiment [4] is T4, KinomeScan kinase panel (Homo sapiens, UniProt P53350).
T4 construct: purchased DiscoveRx (KinomeScan)
T4 sequence (P53350 whole entry): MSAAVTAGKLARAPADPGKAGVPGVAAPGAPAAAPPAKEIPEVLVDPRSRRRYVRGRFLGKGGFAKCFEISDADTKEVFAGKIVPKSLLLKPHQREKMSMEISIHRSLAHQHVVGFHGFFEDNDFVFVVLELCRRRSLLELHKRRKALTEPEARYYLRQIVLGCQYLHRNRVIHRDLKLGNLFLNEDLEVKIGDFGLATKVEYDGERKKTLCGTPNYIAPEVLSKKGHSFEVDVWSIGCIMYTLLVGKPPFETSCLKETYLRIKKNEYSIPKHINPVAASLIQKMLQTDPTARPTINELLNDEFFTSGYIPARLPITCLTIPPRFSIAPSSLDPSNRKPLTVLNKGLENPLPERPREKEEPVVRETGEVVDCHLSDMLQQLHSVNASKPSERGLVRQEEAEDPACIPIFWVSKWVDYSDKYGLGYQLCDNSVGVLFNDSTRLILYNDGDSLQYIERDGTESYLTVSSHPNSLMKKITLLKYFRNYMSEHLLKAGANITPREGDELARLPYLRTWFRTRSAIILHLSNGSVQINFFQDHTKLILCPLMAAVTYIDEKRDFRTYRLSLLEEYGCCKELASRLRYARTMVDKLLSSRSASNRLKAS
Conditions: PLK1, 10 µM; read-out: score (%).

Experiment [5] deals with T5, KinomeScan kinase panel (Homo sapiens, UniProt Q15139).
T5 construct: purchased DiscoveRx (KinomeScan)
T5 sequence (Q15139 1-912): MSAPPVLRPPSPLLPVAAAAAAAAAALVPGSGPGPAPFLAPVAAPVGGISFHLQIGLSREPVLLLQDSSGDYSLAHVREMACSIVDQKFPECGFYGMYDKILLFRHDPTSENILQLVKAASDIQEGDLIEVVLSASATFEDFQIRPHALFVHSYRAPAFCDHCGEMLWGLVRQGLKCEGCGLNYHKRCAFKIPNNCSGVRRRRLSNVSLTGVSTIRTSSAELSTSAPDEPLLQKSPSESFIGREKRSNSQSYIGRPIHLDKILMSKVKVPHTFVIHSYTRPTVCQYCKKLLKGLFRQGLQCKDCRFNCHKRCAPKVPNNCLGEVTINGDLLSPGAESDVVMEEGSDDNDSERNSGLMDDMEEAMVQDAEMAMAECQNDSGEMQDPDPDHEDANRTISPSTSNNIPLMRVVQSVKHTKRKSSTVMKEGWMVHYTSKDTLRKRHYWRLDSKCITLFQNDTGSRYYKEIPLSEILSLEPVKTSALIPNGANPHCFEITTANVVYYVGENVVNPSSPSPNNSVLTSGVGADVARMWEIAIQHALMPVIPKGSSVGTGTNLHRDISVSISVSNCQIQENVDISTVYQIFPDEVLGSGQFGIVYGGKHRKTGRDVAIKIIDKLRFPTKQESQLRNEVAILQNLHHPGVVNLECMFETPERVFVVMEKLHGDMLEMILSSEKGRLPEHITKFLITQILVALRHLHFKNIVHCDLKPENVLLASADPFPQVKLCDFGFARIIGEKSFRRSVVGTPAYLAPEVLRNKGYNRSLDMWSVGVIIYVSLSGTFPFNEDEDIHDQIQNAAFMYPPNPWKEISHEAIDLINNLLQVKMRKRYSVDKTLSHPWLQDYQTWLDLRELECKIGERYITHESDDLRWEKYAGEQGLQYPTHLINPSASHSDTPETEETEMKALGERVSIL
Conditions: read-out: score (%).

Experiment [6] has as its target T6, KinomeScan kinase panel (Homo sapiens, UniProt Q09013).
T6 construct: purchased DiscoveRx (KinomeScan)
T6 sequence (Q09013 1-629): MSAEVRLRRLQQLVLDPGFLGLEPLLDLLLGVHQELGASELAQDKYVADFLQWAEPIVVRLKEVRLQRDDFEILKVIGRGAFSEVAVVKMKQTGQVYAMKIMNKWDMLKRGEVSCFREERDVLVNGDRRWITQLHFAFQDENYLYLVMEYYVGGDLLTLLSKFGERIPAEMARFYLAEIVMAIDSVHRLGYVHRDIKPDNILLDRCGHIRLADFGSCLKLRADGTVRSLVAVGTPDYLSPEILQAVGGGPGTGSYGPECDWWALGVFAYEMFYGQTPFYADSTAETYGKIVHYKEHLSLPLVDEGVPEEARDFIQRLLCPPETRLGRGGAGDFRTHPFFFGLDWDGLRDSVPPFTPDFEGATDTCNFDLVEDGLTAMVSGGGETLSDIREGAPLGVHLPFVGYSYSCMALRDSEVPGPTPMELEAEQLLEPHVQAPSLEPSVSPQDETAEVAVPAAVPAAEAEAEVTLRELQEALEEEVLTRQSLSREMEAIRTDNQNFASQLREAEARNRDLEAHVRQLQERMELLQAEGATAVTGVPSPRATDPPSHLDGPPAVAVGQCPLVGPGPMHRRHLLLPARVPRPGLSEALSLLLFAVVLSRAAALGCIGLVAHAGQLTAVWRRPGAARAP
Conditions: DMPK, 10 µM; read-out: score (%).

Experiment [7] has as its target T7, KinomeScan kinase panel (Homo sapiens, UniProt P17948).
T7 construct: purchased DiscoveRx (KinomeScan)
Conditions: FLT1, 10 µM; read-out: score (%).

The target in experiment [8] is T8, KinomeScan kinase panel (Homo sapiens, UniProt P48730).
T8 construct: purchased DiscoveRx (KinomeScan)
T8 sequence (P48730 whole entry): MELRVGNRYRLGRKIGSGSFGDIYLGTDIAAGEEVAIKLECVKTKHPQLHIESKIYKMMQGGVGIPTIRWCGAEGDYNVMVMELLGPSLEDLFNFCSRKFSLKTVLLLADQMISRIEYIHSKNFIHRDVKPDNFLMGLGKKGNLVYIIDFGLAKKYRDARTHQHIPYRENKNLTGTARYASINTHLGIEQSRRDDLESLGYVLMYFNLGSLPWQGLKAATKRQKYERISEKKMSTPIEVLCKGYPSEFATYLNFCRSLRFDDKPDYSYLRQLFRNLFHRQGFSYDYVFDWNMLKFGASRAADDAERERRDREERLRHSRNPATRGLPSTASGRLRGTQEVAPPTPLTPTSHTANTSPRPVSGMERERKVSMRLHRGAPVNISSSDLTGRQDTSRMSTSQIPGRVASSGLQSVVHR
Conditions: CSNK1D, 10 µM; read-out: score (%).

The target in experiment [9] is T9, KinomeScan kinase panel (Homo sapiens, UniProt P42685).
T9 construct: purchased DiscoveRx (KinomeScan)
T9 sequence (P42685 whole entry): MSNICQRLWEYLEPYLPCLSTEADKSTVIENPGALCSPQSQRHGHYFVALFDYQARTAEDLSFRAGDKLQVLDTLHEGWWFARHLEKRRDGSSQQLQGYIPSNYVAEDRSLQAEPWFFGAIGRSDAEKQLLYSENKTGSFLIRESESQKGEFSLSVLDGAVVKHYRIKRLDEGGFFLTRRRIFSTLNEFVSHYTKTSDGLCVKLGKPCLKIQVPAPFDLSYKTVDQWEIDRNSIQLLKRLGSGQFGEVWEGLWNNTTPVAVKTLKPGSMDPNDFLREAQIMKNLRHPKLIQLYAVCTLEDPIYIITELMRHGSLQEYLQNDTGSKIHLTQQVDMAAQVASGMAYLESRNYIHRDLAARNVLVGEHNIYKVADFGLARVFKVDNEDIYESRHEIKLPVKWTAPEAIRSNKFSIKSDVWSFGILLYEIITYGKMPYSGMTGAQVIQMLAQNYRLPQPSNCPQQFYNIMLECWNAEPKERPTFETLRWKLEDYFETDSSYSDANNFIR
Conditions: FRK, 10 µM; read-out: score (%).

Experiment [10] has as its target T10, KinomeScan kinase panel (Homo sapiens, UniProt Q15759).
T10 construct: purchased DiscoveRx (KinomeScan)
Conditions: p38-beta, 10 µM; read-out: score (%).

Experiment [11] concerns the target T11, KinomeScan kinase panel (Homo sapiens, UniProt P07333).
T11 construct: purchased DiscoveRx (KinomeScan)
Conditions: CSF1R, 10 µM; read-out: score (%).

Experiment [12] concerns the target T12, KinomeScan kinase panel (Homo sapiens, UniProt P07947).
T12 construct: purchased DiscoveRx (KinomeScan)
Conditions: kinase YES; 10 µM; read-out: score (%).

SMILES strings stand for the structures. Where two headings read alike, the source gives them in different places. A value given as a limit tells only on which side of the number the result lay.

T10 sequence (Q15759 whole entry): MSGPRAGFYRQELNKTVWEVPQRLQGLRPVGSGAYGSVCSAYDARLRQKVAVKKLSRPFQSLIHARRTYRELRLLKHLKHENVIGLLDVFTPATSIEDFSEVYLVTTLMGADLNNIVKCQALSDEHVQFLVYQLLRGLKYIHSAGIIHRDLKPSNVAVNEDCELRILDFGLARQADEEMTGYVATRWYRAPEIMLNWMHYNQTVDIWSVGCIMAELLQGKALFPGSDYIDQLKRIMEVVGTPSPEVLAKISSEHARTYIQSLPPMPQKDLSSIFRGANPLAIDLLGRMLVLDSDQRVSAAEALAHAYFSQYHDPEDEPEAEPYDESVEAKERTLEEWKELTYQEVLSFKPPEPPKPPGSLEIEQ
T11 sequence (P07333 20-972): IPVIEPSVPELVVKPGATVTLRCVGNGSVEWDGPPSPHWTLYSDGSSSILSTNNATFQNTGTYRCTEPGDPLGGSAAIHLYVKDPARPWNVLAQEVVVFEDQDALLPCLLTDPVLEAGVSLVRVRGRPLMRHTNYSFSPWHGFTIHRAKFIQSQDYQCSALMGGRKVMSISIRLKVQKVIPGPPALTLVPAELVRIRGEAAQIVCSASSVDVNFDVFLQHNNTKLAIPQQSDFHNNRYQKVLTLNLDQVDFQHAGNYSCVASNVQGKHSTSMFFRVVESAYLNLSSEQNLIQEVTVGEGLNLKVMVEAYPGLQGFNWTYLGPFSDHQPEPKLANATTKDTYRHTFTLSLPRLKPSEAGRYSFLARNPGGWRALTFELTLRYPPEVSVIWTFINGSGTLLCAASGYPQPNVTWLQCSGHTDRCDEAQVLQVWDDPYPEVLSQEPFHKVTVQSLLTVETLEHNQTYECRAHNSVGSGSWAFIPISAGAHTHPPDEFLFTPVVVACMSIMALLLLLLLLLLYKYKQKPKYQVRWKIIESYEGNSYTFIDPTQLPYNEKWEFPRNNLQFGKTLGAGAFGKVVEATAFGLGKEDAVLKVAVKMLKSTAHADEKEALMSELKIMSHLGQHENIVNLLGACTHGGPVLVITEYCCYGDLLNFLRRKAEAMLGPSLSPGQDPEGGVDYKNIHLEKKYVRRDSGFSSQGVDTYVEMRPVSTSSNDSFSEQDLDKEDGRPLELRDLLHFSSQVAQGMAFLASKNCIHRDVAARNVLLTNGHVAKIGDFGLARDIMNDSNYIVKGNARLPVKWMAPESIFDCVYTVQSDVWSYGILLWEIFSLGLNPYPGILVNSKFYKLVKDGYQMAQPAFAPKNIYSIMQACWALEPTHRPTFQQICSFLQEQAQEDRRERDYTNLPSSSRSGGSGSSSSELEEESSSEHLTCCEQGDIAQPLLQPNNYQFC
T2 sequence (Q9UQM7 whole entry): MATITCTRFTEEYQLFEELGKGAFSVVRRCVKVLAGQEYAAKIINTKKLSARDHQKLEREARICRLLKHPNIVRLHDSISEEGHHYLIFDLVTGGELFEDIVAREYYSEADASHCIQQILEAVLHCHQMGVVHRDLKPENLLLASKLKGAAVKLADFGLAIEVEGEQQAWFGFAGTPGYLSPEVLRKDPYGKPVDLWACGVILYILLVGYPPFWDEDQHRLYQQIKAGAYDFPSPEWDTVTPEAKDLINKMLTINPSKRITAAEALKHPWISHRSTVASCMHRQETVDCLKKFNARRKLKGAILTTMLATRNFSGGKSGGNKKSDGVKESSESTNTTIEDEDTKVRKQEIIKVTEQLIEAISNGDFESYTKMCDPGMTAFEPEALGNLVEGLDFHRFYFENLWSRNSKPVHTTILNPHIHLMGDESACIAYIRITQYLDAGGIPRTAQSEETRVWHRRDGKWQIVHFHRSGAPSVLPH
T12 sequence (P07947 whole entry): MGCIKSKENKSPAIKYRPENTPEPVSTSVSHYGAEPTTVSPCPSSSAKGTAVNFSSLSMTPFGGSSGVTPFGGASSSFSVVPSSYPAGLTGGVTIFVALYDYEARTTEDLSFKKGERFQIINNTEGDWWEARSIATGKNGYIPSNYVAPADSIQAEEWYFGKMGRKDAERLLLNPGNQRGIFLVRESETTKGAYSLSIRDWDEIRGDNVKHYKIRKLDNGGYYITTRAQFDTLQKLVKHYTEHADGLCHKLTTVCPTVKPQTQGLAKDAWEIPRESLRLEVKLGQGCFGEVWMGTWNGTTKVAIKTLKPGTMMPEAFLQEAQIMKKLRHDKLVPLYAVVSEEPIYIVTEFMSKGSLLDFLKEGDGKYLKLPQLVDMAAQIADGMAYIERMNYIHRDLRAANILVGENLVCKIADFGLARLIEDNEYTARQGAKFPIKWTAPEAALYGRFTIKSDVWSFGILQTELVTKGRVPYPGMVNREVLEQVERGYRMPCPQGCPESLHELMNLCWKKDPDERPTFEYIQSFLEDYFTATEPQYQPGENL
T1 sequence (Q13882 whole entry): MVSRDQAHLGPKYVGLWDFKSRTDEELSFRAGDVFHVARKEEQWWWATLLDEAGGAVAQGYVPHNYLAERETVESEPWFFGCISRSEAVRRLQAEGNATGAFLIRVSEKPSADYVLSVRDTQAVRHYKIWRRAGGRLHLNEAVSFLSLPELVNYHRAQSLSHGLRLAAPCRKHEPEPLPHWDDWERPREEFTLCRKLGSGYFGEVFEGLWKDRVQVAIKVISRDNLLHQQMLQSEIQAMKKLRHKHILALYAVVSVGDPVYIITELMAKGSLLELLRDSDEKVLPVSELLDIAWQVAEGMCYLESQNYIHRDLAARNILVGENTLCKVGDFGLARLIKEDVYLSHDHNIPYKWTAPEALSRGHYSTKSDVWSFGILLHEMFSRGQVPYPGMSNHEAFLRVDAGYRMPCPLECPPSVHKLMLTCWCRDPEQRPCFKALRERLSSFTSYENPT

With `CCN1CCN(Cc2ccc(NC(=O)c3ccc(C)c(NC(=O)c4cncc(-c5cccs5)c4)c3)cc2C(F)(F)F)CC1` [ALW-II-41-27], the remaining binding at 10 µM on KinomeScan kinase panel [1] (BRK, 10 µM) is 8.2%; at KinomeScan kinase panel [2], greater than 30%; at KinomeScan kinase panel [3], greater than 30%; at KinomeScan kinase panel [4], greater than 30%; on KinomeScan kinase panel [5] (PRKD1, 10 µM), greater than 30%; at KinomeScan kinase panel [6] it was greater than 30%. Further, the remaining binding at 10 µM stood at 1% on KinomeScan kinase panel [7]; 5% on KinomeScan kinase panel [8]; 0.2% at KinomeScan kinase panel [9]; 0% at KinomeScan kinase panel [10]; 0% at KinomeScan kinase panel [11]; 0.1% at KinomeScan kinase panel [12].
On to `CCN1CCN(Cc2ccc(NC(=O)c3ccc(C)c(/C=C/c4cnc5[nH]ccc5c4Cl)c3)cc2C(F)(F)F)CC1` [HG-6-63-01, (E)-3-(2-(4-chloro-1H-pyrrolo[2,3-b]pyridin-5-yl)vinyl)-N-(4-((4-ethylpiperazin-1-yl)methyl)-3-(trifluoromethyl)phenyl)-4-methylbenzamide], for which the remaining binding at 10 µM on KinomeScan kinase panel [1] (PTK6, 10 µM) is 17%; at KinomeScan kinase panel [2], greater than 30%; at KinomeScan kinase panel [3], 14%; on KinomeScan kinase panel [4] it was greater than 30%; on KinomeScan kinase panel [5] (PRKD1, 10 µM), greater than 30%; at KinomeScan kinase panel [6], greater than 30%. For the same compound, the remaining binding at 10 µM on KinomeScan kinase panel [7] is 0.2%; on KinomeScan kinase panel [8] it was greater than 30%; on KinomeScan kinase panel [9] it was 0.55%; on KinomeScan kinase panel [10], 0%; at KinomeScan kinase panel [11], 0%; at KinomeScan kinase panel [12], 0.85%.
Take `CCN1CCN(Cc2ccc(NC(=O)c3ccc(C)c(C#Cc4cccnc4)c3)cc2C(F)(F)F)CC1` [XMD15-44]: the remaining binding at 10 µM on KinomeScan kinase panel [1] (BRK, 10 µM) was 2.8%; at KinomeScan kinase panel [2], greater than 30%; at KinomeScan kinase panel [3], greater than 30%; on KinomeScan kinase panel [4], 58%; at KinomeScan kinase panel [5] (kinase PRKD1, 10 µM) it was 51%; at KinomeScan kinase panel [6], greater than 30%. Also, the remaining binding at 10 µM was found to be 0.5% at KinomeScan kinase panel [7]; 29% at KinomeScan kinase panel [8]; 0.15% on KinomeScan kinase panel [9]; 0% at KinomeScan kinase panel [10]; 0% on KinomeScan kinase panel [11]; 0.1% at KinomeScan kinase panel [12].
